Test results from patent publication US12421210B2, “Fused bicyclic heterocycles as therapeutic agents” (NEW YORK UNIVERSITY, priority 2018, dated 2025).
Read-outs that look alike come from different tables or passages of the source.

Target: human NAMPT enzyme (His-hNAMPT) (Homo sapiens (Human), UniProt P43490)
Assay: NAMPT enzymatic inhibition assay (fluorescence, NADH product)
Assay type: biochemical
[1] = [HDB], read-out: NAMPT IC50 (μM) [HDB]
[2] = [BPS], read-out: NAMPT IC50 (μM) [BPS]

Sequence of human NAMPT enzyme (His-hNAMPT) (P43490 whole entry): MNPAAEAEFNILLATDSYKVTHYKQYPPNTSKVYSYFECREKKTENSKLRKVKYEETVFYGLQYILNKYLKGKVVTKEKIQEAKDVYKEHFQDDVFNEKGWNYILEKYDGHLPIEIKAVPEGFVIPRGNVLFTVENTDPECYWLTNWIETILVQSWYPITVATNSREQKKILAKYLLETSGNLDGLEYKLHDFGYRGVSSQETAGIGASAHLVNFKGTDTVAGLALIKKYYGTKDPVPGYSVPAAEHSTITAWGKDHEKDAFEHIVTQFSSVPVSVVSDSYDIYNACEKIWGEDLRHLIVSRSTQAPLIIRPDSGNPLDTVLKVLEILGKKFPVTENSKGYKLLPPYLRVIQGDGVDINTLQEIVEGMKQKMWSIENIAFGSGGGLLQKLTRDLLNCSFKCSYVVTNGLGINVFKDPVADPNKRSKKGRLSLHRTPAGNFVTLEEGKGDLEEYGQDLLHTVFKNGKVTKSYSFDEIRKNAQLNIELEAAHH

IC50 [1]	IC50 [2]	Compound
0.5 to 0.99 µM	–	O=C(/C=C/c1cccnc1)NCC[C@@H]1[C@H]2CN(CC3CCOCC3)C[C@@H]12 [Example 246, (E)-3-(pyridin-3-yl)-N-(2-((1R,5S,6s)-3-((tetrahydro-2H-pyran-4-yl)methyl)-3-azabicyclo[3.1.0]hexan-6-yl)ethyl)acrylamide]
0.01 to 0.49 µM	–	CC(c1ccccc1)N1C[C@@H]2[C@@H](CCNC(=O)/C=C/c3cccnc3)[C@@H]2C1 (stereo partly drawn) [Example 249, (E)-N-(2-((1R,5S,6s)-3-(1-phenylethyl)-3-azabicyclo[3.1.0]hexan-6-yl)ethyl)-3-(pyridin-3-yl)acrylamide]
0.01 to 0.49 µM	–	O=C(/C=C/c1cccnc1)NCC[C@@H]1[C@H]2CN(Cc3cc(Cl)cc(Cl)c3)C[C@@H]12 [Example 251, (E)-N-(2-((1R,5S,6s)-3-(3,5-dichlorobenzyl)-3-azabicyclo[3.1.0]hexan-6-yl)ethyl)-3-(pyridin-3-yl)acrylamide]
–	1 to 29 µM	CC(C)(C)OC(=O)N1C[C@@H]2[C@H](C1)[C@H]2C(O)CNC(=O)/C=C/c1ccc(N)nc1 (stereo partly drawn) [Example 252, (1R,5S,6r)-tert-butyl 6-(2-((E)-3-(6-aminopyridin-3-yl)acrylamido)-1-hydroxyethyl)-3-azabicyclo[3.1.0]hexane-3-carboxylate]
–	0.01 to 0.49 µM	CC(C)(C)OC(=O)N1C[C@@H]2[C@H](C1)[C@H]2C(F)CNC(=O)/C=C/c1ccc(N)nc1 (stereo partly drawn) [Example 254, (1R,5S,6r)-tert-butyl 6-(2-((E)-3-(6-aminopyridin-3-yl)acrylamido)-1-fluoroethyl)-3-azabicyclo[3.1.0]hexane-3-carboxylate]
–	0.01 to 0.49 µM	CC(C)(C)OC(=O)N1C[C@H]2C[C@@H](CNC(=O)N3Cc4ccncc4C3)C[C@H]2C1 [Example 267, tert-butyl (3aR,5r,6aS)-5-((2,3-dihydro-1H-pyrrolo[3,4-c]pyridine-2-carboxamido)methyl)hexahydrocyclopenta[c]pyrrole-2(1H)-carboxylate]

Continued, compound first:

Compound	IC50 [1]	IC50 [2]
O=C(/C=C/c1cccnc1)NCC[C@@H]1[C@H]2CN(Cc3ccc(C(F)(F)F)cc3)C[C@@H]12 [Example 244, (E)-3-(pyridin-3-yl)-N-(2-((1R,5S,6s)-3-(4-(trifluoromethyl)benzyl)-3-azabicyclo[3.1.0]hexan-6-yl)ethyl)acrylamide]	0.01 to 0.49 µM	–
CC(C)N1C[C@@H]2[C@@H](CCNC(=O)/C=C/c3cccnc3)[C@@H]2C1 [Example 245, (E)-N-(2-((1R,5S,6s)-3-isopropyl-3-azabicyclo[3.1.0]hexan-6-yl)ethyl)-3-(pyridin-3-yl)acrylamide]	1 to 29 µM	–
O=C(/C=C/c1cccnc1)NCC[C@@H]1[C@H]2CN(Cc3ccc(F)cc3)C[C@@H]12 [Example 247, (E)-N-(2-((1R,5S,6s)-3-(4-fluorobenzyl)-3-azabicyclo[3.1.0]hexan-6-yl)ethyl)-3-(pyridin-3-yl)acrylamide]	0.01 to 0.49 µM	–
O=C(/C=C/c1cccnc1)NCC[C@@H]1[C@H]2CN(Cc3ccc(F)cc3F)C[C@@H]12 [Example 248, (E)-N-(2-((1R,5S,6s)-3-(2,4-difluorobenzyl)-3-azabicyclo[3.1.0]hexan-6-yl)ethyl)-3-(pyridin-3-yl)acrylamide]	0.01 to 0.49 µM	–
O=C(/C=C/c1cccnc1)NCC[C@@H]1[C@H]2CN(CCc3ccc(F)cc3)C[C@@H]12 [Example 250, (E)-N-(2-((1R,5S,6s)-3-(4-fluorophenethyl)-3-azabicyclo[3.1.0]hexan-6-yl)ethyl)-3-(pyridin-3-yl)acrylamide]	0.01 to 0.49 µM	–
CC(C)(C)OC(=O)N1C[C@@H]2[C@H](C1)[C@H]2C(O)CNC(=O)/C=C/c1cccnc1 (stereo partly drawn) [Example 253, (1R,5S,6r)-tert-butyl 6-(1-hydroxy-2-((E)-3-(pyridin-3-yl)acrylamido)ethyl)-3-azabicyclo[3.1.0]hexane-3-carboxylate]	–	0.01 to 0.49 µM
CC(C)(C)OC(=O)N1C[C@@H]2[C@H](C1)[C@H]2C(F)CNC(=O)/C=C/c1cccnc1 (stereo partly drawn) [Example 255, (1R,5S,6r)-tert-butyl 6-(1-fluoro-2-((E)-3-(pyridin-3-yl)acrylamido)ethyl)-3-azabicyclo[3.1.0]hexane-3-carboxylate]	–	0.01 to 0.49 µM
